Experimental data from patent US8778926B2, “Compounds, pharmaceutical compositions and uses thereof” (Boehringer Ingelheim International GmbH, priority 2011, dated 2014).

Molecular target: T1, human GPR119 (Homo sapiens, UniProt Q8TDV5)
T1 construct: expression vector for human GPR119 cDNA (Acc. No. NP_848566); expressed in transfected cells
T1 sequence (Q8TDV5 1-335): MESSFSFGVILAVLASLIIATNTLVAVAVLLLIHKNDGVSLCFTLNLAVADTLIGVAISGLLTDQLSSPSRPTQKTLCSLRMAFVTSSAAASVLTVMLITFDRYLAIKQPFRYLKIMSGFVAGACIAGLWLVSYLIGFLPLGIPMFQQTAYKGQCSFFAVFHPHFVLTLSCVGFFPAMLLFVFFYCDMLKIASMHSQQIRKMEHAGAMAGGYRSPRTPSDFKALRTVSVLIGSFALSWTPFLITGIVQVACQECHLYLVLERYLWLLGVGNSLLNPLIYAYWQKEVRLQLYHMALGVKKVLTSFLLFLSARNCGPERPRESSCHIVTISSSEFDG
Assay: AlphaScreen cAMP assay, activation of GPR119 in Min-6/hGPR119 cells
Format: cell-based
Details: MIN6 cells stably transfected with human GPR119; intracellular cAMP; 45 minutes incubation at room temperature
Experimental: The compounds of formula I according to the invention modulate the activity of the G-protein-coupled receptor GPR119. The effect of the compounds on the activation of GPR119 and on the stimulation of intracellular cAMP concentration is determined using the AlphaScreen cAMP Assay Kit (Cat. No. #6760625R) made by PerkinElmer.
MIN6 cells [Miyazaki J et al. Endocrinology. 1990 July; 127(1):126-32] are stably transfected with an expression vector for human GPR119 cDNA (Acc. No. NP_848566). Min-6/hGPR119 cells are cultured in DMEM, 10% FBS, 500 μM β-mercaptoethanol, 0.3 mg/mL Geniticin, 2 mM GlutaMAX at 37° C. 5% CO2. For the assay, the cells are seeded in Optiplates (white, 384-well, 160 W— barcoded, TC, sterile with lid, Cat. No. #6007688 (Perkin Elmer); 10000 cells/well; 50 μl). The plates covered with lids are then incubated for 24 hours at 37° C./5% CO2. After the medium is aspirated from the wells completely, 10 μl of the test compound are added, the compounds are diluted using stimulating buffer (140 mM NaCl, 3.6 mM KCl, 0.5 mM NaH2PO4, 0.5 mM MgSO4, 1.5 mM CaCl2, 10 mM Hepes, 5 mM NaHCO3; pH 7.4. 0.5 mM IBMX and 0.1% BSA, the final DMSO concentration is 1%). After 45 minutes incubation at room temperature (approx. 20° C.), the cAMP concentrations are determined using the AlphaScreen cAMP Assay Kit (Cat. No. #6760625R from PerkinElmer).

SMILES	EC50 [nM]
Cc1cnc(N2CCC([C@@H]3Cc4cc(C5=CCN(S(C)(=O)=O)CC5)ncc4O3)CC2)nc1 (single isomer, unassigned) [Example 32]	29
CCCc1nc(N2CCC(C3Cc4cc(-c5ccc(CS(C)(=O)=O)cc5)ncc4O3)CC2)no1 (stereo not shown) [Example 17, 5-(4-Methanesulfonylmethyl-phenyl)-2-[1-(5-propyl-[1,2,4]oxadiazol-3-yl)-piperidin-4-yl]-2,3-dihydro-furo[2,3-c]pyridine]	21
CC(C)c1nc(N2CCC([C@H]3Cc4cc(C5=CCN(S(C)(=O)=O)CC5)ncc4O3)CC2)no1 (single isomer, unassigned) [Example 45]	13
CC(C)c1noc(N2CCC(C3Cc4cc(-c5ccc(CS(C)(=O)=O)cc5)ncc4O3)CC2)n1 (stereo not shown) [Example 13, 2-[1-(3-Isopropyl-[1,2,4]oxadiazol-5-yl)-piperidin-4-yl]-5-(4-methanesulfonylmethyl-phenyl)-2,3-dihydro-furo[2,3-c]pyridine]	28
CC(C)c1noc(N2CCC(C3Cc4cc(-c5ccc(S(C)(=O)=O)cc5)ccc4O3)CC2)n1 (stereo not shown) [Example 2, 1-(3-Isopropyl-[1,2,4]oxadiazol-5-yl)-4-[5-(4-methanesulfonyl-phenyl)-2,3-dihydro-benzofuran-2-yl]-piperidine]	27
C[C@@]1(C2CCN(c3cnc(C(F)(F)F)cn3)CC2)Cc2cc(C3=CCN(S(C)(=O)=O)CC3)ncc2O1 (single isomer, unassigned) [Example 38]	14
CC(C)(C)c1nc(N2CCC([C@@H]3Cc4cc(C5=CCN(S(C)(=O)=O)CC5)ncc4O3)CC2)no1 (single isomer, unassigned) [Example 51]	7
CCCc1noc(N2CCC([C@]3(C)Cc4cc(-c5ccc(S(C)(=O)=O)cc5)ncc4O3)CC2)n1 (single isomer, unassigned) [Example 27]	15
CC(C)c1noc(N2CCC(C3Cc4cc(-c5ccc(CS(C)(=O)=O)cc5F)ncc4O3)CC2)n1 (stereo not shown) [Example 21, 5-(2-Fluoro-4-methanesulfonylmethyl-phenyl)-2-[1-(3-isopropyl-[1,2,4]oxadiazol-5-yl)-piperidin-4-yl]-2,3-dihydro-furo[2,3-c]pyridine]	28
Cc1cnc(N2CCC([C@]3(C)Cc4cc(C5=CCN(S(C)(=O)=O)CC5)ncc4O3)CC2)cn1 (single isomer, unassigned) [Example 53]	20
CCc1cnc(N2CCC(C3Cc4cc(-c5ccc(C(=O)NCC(C)(C)CO)cc5)ccc4O3)CC2)nc1 (stereo not shown) [Example 63]	112
CCc1cnc(N2CCC(C3Cc4cc(-c5ccc(S(C)(=O)=O)cc5)ccc4O3)CC2)nc1 (stereo not shown) [Example 1, 5-Ethyl-2-{4-[5-(4-methanesulfonyl-phenyl)-2,3-dihydro-benzofuran-2-yl]-piperidin-1-yl}-pyrimidine]	21
CC(C)(C)c1noc(N2CCC([C@]3(C)Cc4cc(-c5ccc(S(C)(=O)=O)cc5)ncc4O3)CC2)n1 (single isomer, unassigned) [Example 29]	51
CCc1cnc(N2CCC([C@]3(C)Cc4cc(C5=CCN(S(C)(=O)=O)CC5)ncc4O3)CC2)nc1 (single isomer, unassigned) [Example 36]	5
CC1(C2CCN(c3nnc(C(F)(F)F)s3)CC2)Cc2cc(C3=CCN(S(C)(=O)=O)CC3)ncc2O1 (single isomer, unassigned) [Example 48, 5-(1-Methanesulfonyl-1,2,3,6-tetrahydro-pyridin-4-yl)-2-methyl-2-[1-(5-trifluoromethyl-[1,3,4]thiadiazol-2-yl)-piperidin-4-yl]-2,3-dihydro-furo[2,3-c]pyridine]	12
CC(C)c1nc(N2CCC([C@@H]3Cc4cc(C5=CCN(S(C)(=O)=O)CC5)ncc4O3)CC2)no1 (single isomer, unassigned) [Example 46]	18
CCc1cnc(N2CCC(C3Cc4cc(-c5ccc(S(C)(=O)=O)cc5)ncc4O3)CC2)cn1 (stereo not shown) [Example 11, 2-[1-(5-Ethyl-pyrazin-2-yl)-piperidin-4-yl]-5-(4-methanesulfonyl-phenyl)-2,3-dihydro-furo[2,3-c]pyridine]	59
CC(C)(C)c1nc(N2CCC([C@H]3Cc4cc(C5=CCN(S(C)(=O)=O)CC5)ncc4O3)CC2)no1 (single isomer, unassigned) [Example 50]	5
CCCc1nc(N2CCC(C3Cc4cc(C5=CCN(S(C)(=O)=O)CC5)ncc4O3)CC2)no1 (stereo not shown) [Example 23, 5-(1-Methanesulfonyl-1,2,3,6-tetrahydro-pyridin-4-yl)-2-[1-(5-propyl-[1,2,4]oxadiazol-3-yl)-piperidin-4-yl]-2,3-dihydro-furo[2,3-c]pyridine]	7
CCc1cnc(N2CCC(C3Cc4cc(-c5ccc(C(=O)NCc6cocn6)cc5)ccc4O3)CC2)nc1 (stereo not shown) [Example 64]	33
CCCc1nc(N2CCC(C3Cc4cc(-c5ccc(CS(C)(=O)=O)cc5F)ncc4O3)CC2)no1 (stereo not shown) [Example 25, 5-(2-Fluoro-4-methanesulfonylmethyl-phenyl)-2-[1-(5-propyl-[1,2,4]oxadiazol-3-yl)-piperidin-4-yl]-2,3-dihydro-furo[2,3-c]pyridine]	62
Cc1cnc(N2CCC([C@H]3Cc4cc(C5=CCN(S(C)(=O)=O)CC5)ncc4O3)CC2)nc1 (single isomer, unassigned) [Example 33]	6
CCc1cnc(N2CCC(C3Cc4cc(C5=CCN(S(C)(=O)=O)CC5)ncc4O3)CC2)nc1 (stereo not shown) [Example 18, 2-[1-(5-Ethyl-pyrimidin-2-yl)-piperidin-4-yl]-5-(1-methanesulfonyl-1,2,3,6-tetrahydro-Pyridin-4-yl)-2,3-dihydro-furo[2,3-c]pyridine]	2
CCc1cnc(N2CCC(C3Cc4cc(-c5ccc(C(=O)N(C)C6CCCOC6)cc5)ccc4O3)CC2)nc1 (stereo not shown) [Example 61]	47
CCCc1noc(N2CCC(C3Cc4cc(C5=CCN(S(C)(=O)=O)CC5)ncc4O3)CC2)n1 (stereo not shown) [Example 19, 5-(1-Methanesulfonyl-1,2,3,6-tetrahydro-pyridin-4-yl)-2-[1-(3-propyl-[1,2,4]oxadiazol-5-yl)-piperidin-4-yl]-2,3-dihydro-furo[2,3-c]pyridine]	25
Cc1cnc(N2CCC([C@]3(C)Cc4cc(C5=CCN(S(C)(=O)=O)CC5)ncc4O3)CC2)nc1 (single isomer, unassigned) [Example 41]	6

The remaining lines, values ahead:

EC50 [nM]	SMILES
3	CS(=O)(=O)N1CC=C(c2cc3c(cn2)O[C@@H](C2CCN(c4ncc(C(F)(F)F)cn4)CC2)C3)CC1 (single isomer, unassigned) [Example 79]
39	CCc1cnc(N2CCC(C3Cc4cc(-c5ccc(C(=O)N(C)CCO)cc5)ccc4O3)CC2)nc1 (stereo not shown) [Example 78]
19	CCc1cnc(N2CCC(C3Cc4cc(-c5ccc(C(=O)NCC6COCCO6)cc5)ccc4O3)CC2)nc1 (stereo not shown) [Example 77]
16	CCc1cnc(N2CCC(C3Cc4cc(-c5ccc(C(=O)N(C)CC#N)cc5)ccc4O3)CC2)nc1 (stereo not shown) [Example 71]
59	C[C@]1(C2CCN(c3ncc(Cl)cn3)CC2)Cc2cc(C3=CCN(S(C)(=O)=O)CC3)ncc2O1 (single isomer, unassigned) [Example 88]
5	CS(=O)(=O)N1CC=C(c2cc3c(cn2)O[C@@H](C2CCN(c4cnc(C(F)(F)F)cn4)CC2)C3)CC1 (single isomer, unassigned) [Example 80]
108	CCc1cnc(N2CCC(C3Cc4cc(-c5ccc(C(=O)N6CCC(O)C6)cc5)ccc4O3)CC2)nc1 (stereo not shown) [Example 70]
59	CCc1cnc(N2CCC(C3Cc4cc(-c5ccc(C(=O)N6CC(OC)C6)cc5)ccc4O3)CC2)nc1 (stereo not shown) [Example 76]
10	COc1cnc(N2CCC([C@H]3Cc4cc(C5=CCN(S(C)(=O)=O)CC5)ncc4O3)CC2)nc1 (single isomer, unassigned) [Example 92]
141	CCc1cnc(N2CCC(C3Cc4cc(-c5ccc(C(=O)NCC#N)cc5)ccc4O3)CC2)nc1 (stereo not shown) [Example 67]
19	CCc1cnc(N2CCC(C3Cc4cc(-c5ccc(C(=O)NCc6ccccn6)cc5)ccc4O3)CC2)nc1 (stereo not shown) [Example 73]
2	CS(=O)(=O)N1CC=C(c2cc3c(cn2)O[C@@H](C2CCN(c4ncc(C(F)(F)F)cc4F)CC2)C3)CC1 (single isomer, unassigned) [Example 84]
10	CS(=O)(=O)c1ccc(-c2cc3c(cn2)O[C@@H](C2CCN(c4ncc(C5CC5)cn4)CC2)C3)cc1 (single isomer, unassigned) [Example 93]
7	CCc1cnc(N2CCC([C@H]3Cc4cc(-c5ccc(S(C)(=O)=O)cc5)ncc4O3)CC2)nc1 (single isomer, unassigned) [Example 85]
